Values of other authors, collected in patent US12274695B2, “Pharmaceutical drug therapy for autism” (priority 2020, dated 2025).
Like-named read-outs stand apart in the source and are kept apart here.

Tests used:
humans = conditions: in humans
[1] = test system: monkey model of schizophrenia
[2] = in vivo
fear conditioning = conditions: preclinical, after fear conditioning
[3] = test system: mouse model of Alzheimer's disease (AD)
adults with ASD = conditions: 7 mg transdermal nicotine, 1 week
[4] = test system: BTBR T+Itpr3 tf/J (BTBR) mice

SMILES | addictive or cardiovascular effects (humans) | working memory [1] | blood-brain barrier crossing [2] | plasma half-life compared with nicotine [2] | extinction of fear memory and anxiety (fear conditioning) | working memory [3] | Sleep ratings (adults with ASD) | Aberrant Behavior Checklist-Irritability (ABC-I) subscale change from baseline (adults with ASD; compared to placebo, five subjects) | tolerability (adults with ASD; eight subjects) | repetitive behaviors ([4]; BTBR mice) | social deficits ([4]; BTBR mice) | hotplate latency compared to vehicle ([4]; BTBR mice, higher doses) | hotplate latency compared to vehicle ([4]; BTBR mice, lower doses) | antinociceptive effects to noxious heat ([4]; control mice) | cold plate resistance ([4]; mice with Autism mutations, four-week nicotine treatment)
CN1C(=O)CC[C@H]1c1cccnc1 [Cotinine] | no addictive or cardiovascular effects | improved | crosses the blood-brain barrier | longer | facilitated | improved | – | – | – | – | – | – | – | – | –
CN1CCCC1c1cccnc1 (stereo not drawn) [nicotine, Nicotine] | – | – | – | – | – | – | improved | improved | tolerated nicotine treatment well | decrease repetitive behaviors | improve social deficits | decreased | increased | only at the high dose | increase
